≈ marks a conversion by molar mass, not a printed value.
Columns and labels:
[1] = molecular target: T1, Mycobacterial beta-ketoacyl-[acyl-carrier-protein] synthase III (Mycobacterium tuberculosis, UniProt P9WNG3); assay: Inhibitory activity against FabH from Mycobacterium tuberculosis H37Rv
T1 sequence (P9WNG3 whole entry): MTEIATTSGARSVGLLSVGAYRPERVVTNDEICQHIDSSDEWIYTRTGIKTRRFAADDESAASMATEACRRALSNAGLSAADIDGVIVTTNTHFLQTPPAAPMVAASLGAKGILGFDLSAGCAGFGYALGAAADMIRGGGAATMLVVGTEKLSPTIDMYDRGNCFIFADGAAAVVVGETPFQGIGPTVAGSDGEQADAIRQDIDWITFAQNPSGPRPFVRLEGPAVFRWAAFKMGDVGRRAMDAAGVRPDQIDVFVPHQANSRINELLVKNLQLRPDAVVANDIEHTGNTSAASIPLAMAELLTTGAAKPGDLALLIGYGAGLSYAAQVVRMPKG

[2] = molecular target: T2, 3-oxoacyl-[acyl-carrier-protein] synthase 2 (Mycobacterium tuberculosis, UniProt P9WQD7); assay: Inhibitory activity against KasB from Mycobacterium tuberculosis H37Rv
T2 sequence (P9WQD7 whole entry): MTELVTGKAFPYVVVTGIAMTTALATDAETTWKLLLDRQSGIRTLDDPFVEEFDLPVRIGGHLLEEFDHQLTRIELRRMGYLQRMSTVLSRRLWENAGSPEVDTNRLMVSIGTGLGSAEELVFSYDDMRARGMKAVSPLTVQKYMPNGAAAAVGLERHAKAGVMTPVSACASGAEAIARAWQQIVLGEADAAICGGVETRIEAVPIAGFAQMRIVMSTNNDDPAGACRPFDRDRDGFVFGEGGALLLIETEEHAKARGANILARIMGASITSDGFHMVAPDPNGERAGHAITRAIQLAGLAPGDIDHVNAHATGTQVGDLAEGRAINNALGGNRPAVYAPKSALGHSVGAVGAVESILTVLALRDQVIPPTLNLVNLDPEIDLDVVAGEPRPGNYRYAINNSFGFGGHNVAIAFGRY

[3] = molecular target: T3, 3-oxoacyl-[acyl-carrier-protein] synthase 1 (Escherichia coli K-12, UniProt P0A953); assay: Inhibitory activity against FabB from Escherichia coli ANSI
T3 sequence (P0A953 whole entry): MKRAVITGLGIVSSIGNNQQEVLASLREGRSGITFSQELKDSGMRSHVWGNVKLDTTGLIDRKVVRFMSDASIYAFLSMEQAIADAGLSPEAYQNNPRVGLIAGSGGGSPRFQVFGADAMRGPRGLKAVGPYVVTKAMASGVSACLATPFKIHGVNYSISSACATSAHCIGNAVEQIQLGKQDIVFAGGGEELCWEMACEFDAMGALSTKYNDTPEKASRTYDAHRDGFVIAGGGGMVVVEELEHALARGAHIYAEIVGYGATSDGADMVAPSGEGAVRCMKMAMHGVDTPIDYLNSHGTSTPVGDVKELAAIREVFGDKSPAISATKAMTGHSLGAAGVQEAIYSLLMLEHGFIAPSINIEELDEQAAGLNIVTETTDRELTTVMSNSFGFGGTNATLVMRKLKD

[4] = molecular target: T4, 3-oxoacyl-[acyl-carrier-protein] synthase 3 (Escherichia coli, UniProt C3TDZ2); assay: Inhibitory activity against FabH from Escherichia coli ANSI
T4 sequence (C3TDZ2 whole entry): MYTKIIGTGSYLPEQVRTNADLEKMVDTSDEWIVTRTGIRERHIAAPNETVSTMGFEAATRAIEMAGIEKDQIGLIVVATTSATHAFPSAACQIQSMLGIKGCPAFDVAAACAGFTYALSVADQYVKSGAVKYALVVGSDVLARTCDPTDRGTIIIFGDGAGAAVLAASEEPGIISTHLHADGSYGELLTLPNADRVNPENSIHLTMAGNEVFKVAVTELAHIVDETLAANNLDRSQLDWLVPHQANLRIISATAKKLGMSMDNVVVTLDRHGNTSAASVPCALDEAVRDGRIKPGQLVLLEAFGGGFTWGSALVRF

[5] = tested on: Mycobacterium tuberculosis; assay: Inhibitory activity against Mycobacterium tuberculosis H37Rv; type: functional
Escherichia coli = assay: Inhibitory activity against Escherichia coli ANSI; type: functional
wild-type apo-KasA = wild-type apo-KasA (Mycobacterium tuberculosis, UniProt P9WQD9); assay: Inhibitory activity against KasA from Mycobacterium tuberculosis H37Rv
Chain of wild-type apo-KasA (P9WQD9 whole entry, looked up): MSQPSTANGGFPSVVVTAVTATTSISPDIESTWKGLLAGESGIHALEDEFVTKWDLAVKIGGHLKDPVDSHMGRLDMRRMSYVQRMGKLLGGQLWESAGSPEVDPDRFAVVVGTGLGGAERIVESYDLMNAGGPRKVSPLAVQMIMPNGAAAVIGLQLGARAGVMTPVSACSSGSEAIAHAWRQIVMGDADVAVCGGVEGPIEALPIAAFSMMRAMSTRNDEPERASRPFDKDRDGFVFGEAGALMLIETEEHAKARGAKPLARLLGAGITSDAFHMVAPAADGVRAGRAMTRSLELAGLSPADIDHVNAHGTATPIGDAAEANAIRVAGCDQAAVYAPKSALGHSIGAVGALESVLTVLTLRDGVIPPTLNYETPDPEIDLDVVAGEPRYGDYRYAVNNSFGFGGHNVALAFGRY

| SMILES | IC50 [1] [mM] | IC50 [2] [mM] | IC50 [3] [mM] | IC50 [4] [mM] | MIC [5] [µM] | MIC (Escherichia coli) [µM] | IC50 (wild-type apo-KasA) [mM] |
| --- | --- | --- | --- | --- | --- | --- | --- |
| CCCCCCCC1(C)SC(O)=C(C)C1=O (stereo unspecified) | > 1 | > 1 | > 1 | > 1 | 1000 (≈ 242 µg/mL) | 200 (≈ 48.5 µg/mL) | > 1 |
| C=C/C(C)=C/[C@@]1(C)SC(=O)C(C)=C1O [THIOLACTOMYCIN] | – | 0.006 | 0.012 | – | 62.5 (≈ 13.1 µg/mL) | 6 (≈ 1.26 µg/mL) | – |
| CC1=C(O)C(C)(Cc2cccc(C)c2)SC1=O (stereo unspecified) | > 1 | > 1 | > 1 | > 1 | 1000 (≈ 248 µg/mL) | > 1000 | > 1 |
| CC1=C(O)C(C)(Cc2ccc([N+](=O)[O-])cc2)SC1=O (stereo unspecified) | > 1 | > 1 | > 1 | > 1 | > 1000 | > 1000 | > 1 |
| CC1=C(O)C(C)(Cc2cccc(C(F)(F)F)c2)SC1=O (stereo unspecified) | > 1 | > 1 | > 1 | > 1 | 1000 (≈ 302 µg/mL) | > 1000 | > 1 |
| COc1ccc(CC2(C)SC(O)=C(C)C2=O)cc1 (stereo unspecified) | > 1 | > 1 | > 1 | > 1 | > 1000 | > 1000 | > 1 |
| CCCCCC(C)C1(C)SC(O)=C(C)C1=O (stereo unspecified) | > 1 | > 1 | > 1 | > 1 | 1000 (≈ 242 µg/mL) | 160 (≈ 38.8 µg/mL) | > 1 |
| CCCCCCCCCC1(C)SC(O)=C(C)C1=O (stereo unspecified) | > 0.1 | > 1 | > 1 | > 0.1 | 500 (≈ 135 µg/mL) | 100 (≈ 27 µg/mL) | > 1 |
| CC1=C(O)SC(C)(C(C)c2ccccc2)C1=O (stereo unspecified) | > 1 | > 1 | > 1 | > 1 | > 1000 | > 1000 | > 1 |
| CC1=C(O)C(C)(Cc2ccccc2Cl)SC1=O (stereo unspecified) | > 1 | > 1 | > 1 | > 1 | 1000 (≈ 269 µg/mL) | > 1000 | > 1 |
| CCCCCCCCCCCCCCCCCCC1(C)SC(O)=C(C)C1=O (stereo unspecified) | – | – | – | – | > 1000 | – | – |
| CCCCCCCCCCCCCCCCCCCCC1(C)SC(O)=C(C)C1=O (stereo unspecified) | – | – | – | – | > 1000 | – | – |
| CC1=C(O)C(C)(CCc2ccccc2)SC1=O (stereo unspecified) | > 1 | > 1 | > 1 | > 1 | 1000 (≈ 248 µg/mL) | > 1000 | > 1 |
| CC1=C(O)C(C)(CC2CCC2)SC1=O (stereo unspecified) | > 1 | > 1 | > 1 | > 1 | 1000 (≈ 212 µg/mL) | > 1000 | > 1 |
| CC1=C(O)C(C)(CC2CCCCC2)SC1=O (stereo unspecified) | > 1 | > 1 | > 1 | > 1 | > 1000 | > 1000 | > 1 |
| CC1=C(O)C(C)(CCCc2ccccc2)SC1=O (stereo unspecified) | > 1 | > 1 | > 1 | > 1 | 1000 (≈ 262 µg/mL) | > 1000 | > 1 |
| CC1=C(O)SC(C)(CCC(C)C)C1=O (stereo unspecified) | > 1 | > 1 | > 1 | > 1 | > 1000 | > 1000 | > 1 |
| C=CCCCCCCC1(C)SC(=O)C(C)=C1O (stereo unspecified) | > 1 | > 1 | > 1 | > 1 | 500 (≈ 127 µg/mL) | 200 (≈ 50.9 µg/mL) | > 1 |
